Where two headings read alike, the source gives them in different places.
Experiments:
human A2B receptors = biological target: T1, human A2B receptors (Homo sapiens, UniProt P29275); assay: Functional human A2B receptor activity, recombinant HEK293 cells, cAMP (HTRF); assay type: cell-based; conditions: read-out: A2B (Category)
T1 construct: expressed in transfected cells; host or cells: HEK293
T1 sequence (P29275 1-332): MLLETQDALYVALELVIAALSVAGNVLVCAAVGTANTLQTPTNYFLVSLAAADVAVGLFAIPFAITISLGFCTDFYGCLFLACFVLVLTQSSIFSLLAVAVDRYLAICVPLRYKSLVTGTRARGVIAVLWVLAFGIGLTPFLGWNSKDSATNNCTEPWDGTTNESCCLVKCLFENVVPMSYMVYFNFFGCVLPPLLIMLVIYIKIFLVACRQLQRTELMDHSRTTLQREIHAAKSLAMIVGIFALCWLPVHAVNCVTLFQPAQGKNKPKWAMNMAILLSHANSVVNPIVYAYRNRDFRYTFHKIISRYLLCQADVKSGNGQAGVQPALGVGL
Procedure, shortened: (§1)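 cAMP accumulation, determined by HTRF after a 15 min incubation, served as the functional measure of receptor activity.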

human A2A receptors = biological target: T2, human A2A receptors (Homo sapiens, UniProt P29274); assay: Functional human A2A receptor activity, recombinant HEK293 cells, cAMP (HTRF); assay type: cell-based; conditions: read-out: A2A (Category)
T2 construct: expressed in transfected cells; host or cells: HEK293
Procedure, shortened: as §1

[1] = recombinant HEK293 cells expressing human A2B receptor, agonist NECA, cAMP HTRF, 15 min incubation
[2] = recombinant HEK293 cells expressing human A2A receptor, agonist NECA, cAMP HTRF, 15 min incubation

T2 sequence (P29274 whole entry): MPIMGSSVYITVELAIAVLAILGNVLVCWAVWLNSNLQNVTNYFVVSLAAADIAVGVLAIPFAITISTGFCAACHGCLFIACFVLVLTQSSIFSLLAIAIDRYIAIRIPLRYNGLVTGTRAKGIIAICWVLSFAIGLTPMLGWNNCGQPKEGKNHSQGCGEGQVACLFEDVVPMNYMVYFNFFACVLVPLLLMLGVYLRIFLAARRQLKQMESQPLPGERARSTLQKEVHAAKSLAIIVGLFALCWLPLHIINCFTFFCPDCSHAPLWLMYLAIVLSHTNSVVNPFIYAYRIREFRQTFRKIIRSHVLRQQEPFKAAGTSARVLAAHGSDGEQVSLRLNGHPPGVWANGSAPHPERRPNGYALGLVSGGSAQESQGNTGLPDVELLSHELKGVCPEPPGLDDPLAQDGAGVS

SMILES | IC50 (human A2B receptors; [1]) | IC50 (human A2A receptors; [2]) | IC50 (human A2B receptors) | IC50 (human A2A receptors)
O=C(c1cc2c(cn1)c(-c1cnc3c(F)cc(F)cn13)nn2CC(F)(F)F)N1CC2COCC2C1 (stereo not drawn) [Compound 154, [3-(6,8-Difluoro-imidazo[1,2-a]pyridin-3-yl)-1-(2,2,2-trifluoro-ethyl)-1H-pyrazolo[4,3-c]pyridin-6-yl]-(tetrahydro-furo[3,4-c]pyrrol-5-yl)-methanone] | < 1 µM | < 0.1 µM | – | –
O=C(c1cc2c(cn1)c(-c1cnc3c(F)cc(F)cn13)nn2CC(F)(F)F)N1CCCC(F)(F)C1 [Compound 159, [3-(6,8-Difluoro-imidazo[1,2-a]pyridin-3-yl)-1-(2,2,2-trifluoro-ethyl)-1H-pyrazolo[4,3-c]pyridin-6-yl]-(3,3-difluoro-piperidin-1-yl)-methanone] | – | – | < 1 µM | < 0.1 µM
O=C(c1cc2c(cn1)c(-c1cnc3c(F)cc(F)cn13)nn2CC(F)(F)F)N1CCCC(CO)C1 (stereo not drawn) [Compound 161, [3-(6,8-Difluoro-imidazo[1,2-a]pyridin-3-yl)-1-(2,2,2-trifluoro-ethyl)-1H-pyrazolo[4,3-c]pyridin-6-yl]-(3-hydroxymethyl-piperidin-1-yl)-methanone] | – | – | < 1 µM | < 0.1 µM
CC1(O)C2CCC1CN(C(=O)c1cc3c(cn1)c(-c1cnc4c(F)cc(F)cn14)nn3CC(F)(F)F)C2 (stereo not drawn) [Compound 162, [3-(6,8-Difluoro-imidazo[1,2-a]pyridin-3-yl)-1-(2,2,2-trifluoro-ethyl)-1H-pyrazolo[4,3-c]pyridin-6-yl]-(8-endo-hydroxy-8-exo-methyl-3-aza-bicyclo[3.2.1]oct-3-yl)-methanone] | – | – | < 1 µM | < 0.1 µM
O=C(c1cc2c(cn1)c(-c1cnc3c(F)cc(F)cn13)nn2CC(F)(F)F)N1CCC(CO)CC1 [Compound 165, [3-(6,8-Difluoro-imidazo[1,2-a]pyridin-3-yl)-1-(2,2,2-trifluoro-ethyl)-1H-pyrazolo[4,3-c]pyridin-6-yl]-(4-hydroxymethyl-piperidin-1-yl)-methanone] | – | – | < 1 µM | < 0.1 µM
O=C(c1cc2c(cn1)c(-c1cnc3c(F)cc(F)cn13)nn2CC(F)(F)F)N1CCC2(CC1)COC2 [Compound 166, [3-(6,8-Difluoro-imidazo[1,2-a]pyridin-3-yl)-1-(2,2,2-trifluoro-ethyl)-1H-pyrazolo[4,3-c]pyridin-6-yl]-(2-oxa-7-aza-spiro[3.5]non-7-yl)-methanone] | – | – | < 1 µM | < 0.1 µM
O=C(c1cc2c(cn1)c(-c1cnc3c(F)cc(F)cn13)nn2CC(F)(F)F)N1[C@@H]2CC[C@H]1C[C@@H](O)C2 [Compound 168, [3-(6,8-Difluoro-imidazo[1,2-a]pyridin-3-yl)-1-(2,2,2-trifluoro-ethyl)-1H-pyrazolo[4,3-c]pyridin-6-yl]-(3-endo-hydroxy-8-aza-bicyclo[3.2.1]oct-8-yl)-methanone] | – | – | < 0.1 µM | < 0.1 µM
O=C(c1cc2c(cn1)c(-c1cnc3c(F)cc(F)cn13)nn2CC(F)(F)F)N1CC2CC3CC(C2)CC1C3 [Compound 169, (4-Aza-tricyclo[4.3.1.1*3,8*]undec-4-yl)-[3-(6,8-difluoro-imidazo[1,2-a]pyridin-3-yl)-1-(2,2,2-trifluoro-ethyl)-1H-pyrazolo[4,3-c]pyridin-6-yl]-methanone] | – | – | < 0.1 µM | < 0.1 µM
O=C(c1cc2c(cn1)c(-c1cnc3c(F)cc(F)cn13)nn2CC(F)(F)F)N1CC2CCC(C1)C2O (stereo not drawn) [Compound 170, [3-(6,8-Difluoro-imidazo[1,2-a]pyridin-3-yl)-1-(2,2,2-trifluoro-ethyl)-1H-pyrazolo[4,3-c]pyridin-6-yl]-(8-exo-hydroxy-3-aza-bicyclo[3.2.1]oct-3-yl)-methanone] | – | – | < 1 µM | < 0.1 µM
O=C(c1cc2c(cn1)c(-c1cnc3c(F)cc(F)cn13)nn2CC(F)(F)F)N1C2CCC1CC(O)C2 (stereo not drawn) [Compound 171, [3-(6,8-Difluoro-imidazo[1,2-a]pyridin-3-yl)-1-(2,2,2-trifluoro-ethyl)-1H-pyrazolo[4,3-c]pyridin-6-yl]-(3-exo-hydroxy-8-aza-bicyclo[3.2.1]oct-8-yl)-methanone] | < 1 µM | < 0.1 µM | – | –
O=C(c1cc2c(cn1)c(-c1cnc3c(F)cc(F)cn13)nn2CC(F)(F)F)N1C2CCCC1CC2 [Compound 172, (8-Aza-bicyclo[3.2.1]oct-8-yl)-[3-(6,8-difluoro-imidazo[1,2-a]pyridin-3-yl)-1-(2,2,2-trifluoro-ethyl)-1H-pyrazolo[4,3-c]pyridin-6-yl]-methanone] | – | – | < 0.1 µM | < 0.1 µM
O=C(c1cc2c(cn1)c(-c1cnc3c(F)cc(F)cn13)nn2CC(F)(F)F)N1CCC(C(F)F)CC1 [Compound 173, [3-(6,8-Difluoro-imidazo[1,2-a]pyridin-3-yl)-1-(2,2,2-trifluoro-ethyl)-1H-pyrazolo[4,3-c]pyridin-6-yl]-(4-difluoromethyl-piperidin-1-yl)-methanone] | – | – | < 1 µM | < 0.1 µM
CC1(CO)CCN(C(=O)c2cc3c(cn2)c(-c2cnc4c(F)cc(F)cn24)nn3CC(F)(F)F)CC1 [Compound 176, [3-(6,8-Difluoro-imidazo[1,2-a]pyridin-3-yl)-1-(2,2,2-trifluoro-ethyl)-1H-pyrazolo[4,3-c]pyridin-6-yl]-(4-hydroxymethyl-4-methyl-piperidin-1-yl)-methanone] | – | – | < 1 µM | < 0.1 µM
O=C(c1cc2c(cn1)c(-c1cnc3c(F)cc(F)cn13)nn2CC(F)(F)F)N1CCCC(O)CC1 (stereo not drawn) [Compound 177, [3-(6,8-Difluoro-imidazo[1,2-a]pyridin-3-yl)-1-(2,2,2-trifluoro-ethyl)-1H-pyrazolo[4,3-c]pyridin-6-yl]-(4-hydroxy-azepan-1-yl)-methanone] | – | – | < 0.1 µM | < 0.1 µM
O=C(c1cc2c(cn1)c(-c1cnc3c(F)cc(F)cn13)nn2CC(F)(F)F)N1CCCS(=O)(=O)CC1 [Compound 180, [3-(6,8-Difluoro-imidazo[1,2-a]pyridin-3-yl)-1-(2,2,2-trifluoro-ethyl)-1H-pyrazolo[4,3-c]pyridin-6-yl]-1,4-thiazepan-1,1-dioxide-4-yl-methanone] | – | – | < 1 µM | < 0.1 µM
CC1(C)CN(C(=O)c2cc3c(cn2)c(-c2cnc4c(F)cc(F)cn24)nn3CC(F)(F)F)CCCO1 [Compound 182, [3-(6,8-Difluoro-imidazo[1,2-a]pyridin-3-yl)-1-(2,2,2-trifluoro-ethyl)-1H-pyrazolo[4,3-c]pyridin-6-yl]-(2,2-dimethyl-1,4-oxazepan-4-yl)-methanone] | – | – | < 1 µM | < 0.1 µM
C[C@@H]1COC[C@H](C)N1C(=O)c1cc2c(cn1)c(-c1cnc3c(F)cc(F)cn13)nn2CC(F)(F)F [Compound 183, Cis-[3-(6,8-Difluoro-imidazo[1,2-a]pyridin-3-yl)-1-(2,2,2-trifluoro-ethyl)-1H-pyrazolo[4,3-c]pyridin-6-yl]-(3,5-dimethyl-morpholin-4-yl)-methanone] | – | – | < 1 µM | < 0.1 µM
O=C(c1cc2c(cn1)c(-c1cnc3c(F)cc(F)cn13)nn2CC(F)(F)F)N1CCOCC(F)(F)C1 [Compound 185, [3-(6,8-Difluoro-imidazo[1,2-a]pyridin-3-yl)-1-(2,2,2-trifluoro-ethyl)-1H-pyrazolo[4,3-c]pyridin-6-yl]-(6,6-difluoro-1,4-oxazepan-4-yl)-methanone] | – | – | < 1 µM | < 0.1 µM

Reference: patent US20210380606A1, “5-AZAINDAZOLE DERIVATIVES AS ADENOSINE RECEPTOR ANTAGONISTS” (Merck Patent GmbH, priority 2018, published 2021)
